Like-named read-outs stand apart in the source and are kept apart here. Values belong to the molecule of their own block, whether it stands above or below them.
Target: T1, CFTR (Homo sapiens, UniProt P13569, DEL508-508)
T1 construct: endogenous in cells; host or cells: primary human bronchial epithelial cells from CF subjects (F508del/MF-HBE), differentiated at air-liquid interface
Assay: HBE assay: Ussing chamber assay of CFTR-mediated short-circuit currents
Type: cell-based
Settings: for EC50: read-out: HBE EC50
Outline: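 CFTR-mediated Isc (μA/cm²) equals the peak response to apical 20 μM forskolin minus the residual after a 20 μM each BPO/GlyH-101/CFTR inhibitor 172 cocktail, recorded in Ussing chambers at Vhold 0 mV, 37 °C, pH 7.4, with 30 μM apical amiloride. Cells were F508del/MF HBE cultures preincubated 18-24 h with corrector (concentration range or 10 μM) plus 1 μM ivacaftor in 20% human serum.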

[1] = HBE assay, 10 μM, read-out: HBE Activity at 10 μM (%)
[2] = Table 11, at 10 μM, read-out: HBE Activity at 10 μM (%)
[3] = Table 10, at 10 μM, read-out: HBE activity at 10 (μM) (%)
[4] = Table 10, read-out: HBE Max activity (%)
[5] = Table 11, read-out: HBE Max Activity (%)
[6] = Table 12, at 10 μM, read-out: HBE Activity at 10 μM (%)
[7] = Table 13, at 10 μM, read-out: HBE Activity at 10 μM (%)
[8] = Table 12, read-out: HBE Max Activity (%)
[9] = HBE assay, read-out: HBE Max activity (%)
[10] = Table 13, read-out: HBE Max Activity (%)

T1 sequence (P13569 with tags, fused parts or gaps DEL508-508): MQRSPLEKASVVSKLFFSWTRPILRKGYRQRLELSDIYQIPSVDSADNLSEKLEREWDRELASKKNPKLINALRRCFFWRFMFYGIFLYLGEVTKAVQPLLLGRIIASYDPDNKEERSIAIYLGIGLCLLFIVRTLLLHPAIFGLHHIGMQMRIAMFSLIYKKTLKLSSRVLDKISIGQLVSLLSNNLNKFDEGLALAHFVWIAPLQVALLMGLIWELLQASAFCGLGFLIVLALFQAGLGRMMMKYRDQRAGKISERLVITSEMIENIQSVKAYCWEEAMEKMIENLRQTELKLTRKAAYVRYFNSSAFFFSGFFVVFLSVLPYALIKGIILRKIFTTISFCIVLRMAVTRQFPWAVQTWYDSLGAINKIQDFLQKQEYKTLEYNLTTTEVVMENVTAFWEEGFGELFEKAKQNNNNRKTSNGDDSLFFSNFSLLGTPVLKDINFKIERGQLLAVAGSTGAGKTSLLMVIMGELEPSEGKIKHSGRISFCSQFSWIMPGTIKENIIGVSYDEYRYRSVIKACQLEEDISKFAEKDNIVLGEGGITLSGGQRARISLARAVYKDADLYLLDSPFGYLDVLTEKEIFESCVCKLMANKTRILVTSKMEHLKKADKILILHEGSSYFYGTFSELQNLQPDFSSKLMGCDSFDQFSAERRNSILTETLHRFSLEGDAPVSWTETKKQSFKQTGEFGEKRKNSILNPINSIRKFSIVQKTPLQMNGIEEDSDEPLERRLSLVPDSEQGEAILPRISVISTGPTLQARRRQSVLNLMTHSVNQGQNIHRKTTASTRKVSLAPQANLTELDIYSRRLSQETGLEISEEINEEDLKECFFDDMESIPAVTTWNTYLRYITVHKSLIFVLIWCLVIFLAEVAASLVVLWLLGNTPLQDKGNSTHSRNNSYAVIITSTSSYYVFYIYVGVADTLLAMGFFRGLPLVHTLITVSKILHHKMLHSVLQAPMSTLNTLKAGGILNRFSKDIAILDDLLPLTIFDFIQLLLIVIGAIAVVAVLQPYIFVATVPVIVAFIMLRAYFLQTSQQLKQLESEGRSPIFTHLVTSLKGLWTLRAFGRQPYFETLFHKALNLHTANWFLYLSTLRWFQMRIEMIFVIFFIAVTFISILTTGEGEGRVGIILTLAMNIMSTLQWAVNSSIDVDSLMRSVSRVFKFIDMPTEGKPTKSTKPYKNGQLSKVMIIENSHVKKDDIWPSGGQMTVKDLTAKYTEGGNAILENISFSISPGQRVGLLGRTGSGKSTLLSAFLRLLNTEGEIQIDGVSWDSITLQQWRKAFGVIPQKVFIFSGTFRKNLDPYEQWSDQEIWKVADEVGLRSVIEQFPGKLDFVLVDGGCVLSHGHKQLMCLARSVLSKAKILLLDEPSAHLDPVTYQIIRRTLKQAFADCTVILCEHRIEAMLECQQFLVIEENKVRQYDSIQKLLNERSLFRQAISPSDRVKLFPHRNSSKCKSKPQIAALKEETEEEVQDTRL

Compound: Cc1cccc(C)c1-c1cc2nc(n1)NS(=O)(=O)c1cccc(c1)C(=O)N(Cc1ncc(N3CCC(F)(F)CC3)cn1)[C@H](CC(C)(C)C)CO2 [Compound 1443]
activation at 10 µM [1]: > 60%

Compound: Cc1cccc(C)c1-c1cc2nc(n1)NS(=O)(=O)c1cccc(c1)C(=O)N(CC1CC(C)(C)CCO1)[C@H](CC(C)(C)C)CO2 (single isomer, unassigned) [Compound 25]
activation at 10 µM [2]: > 60%

Compound: Cc1cccc(C)c1-c1cc2nc(n1)NS(=O)(=O)c1cccc(c1)C(=O)N(Cc1cccc(C3=CCOCC3)n1)[C@H](CC(C)(C)C)CO2 [Compound 733]
activation at 10 µM [2]: > 60%
EC50 (Table 11): < 1 µM
Emax [5]: > 60%

Compound: Cc1cccc(C)c1-c1cc2nc(n1)NS(=O)(=O)c1cccc(c1)C(=O)N(Cc1cccc(N3CCC[C@H]3C3CC3)n1)[C@H](CC1CC1)CO2 [Compound 1501]
activation at 10 µM [1]: > 60%

Compound: Cc1cccc(C)c1-c1cc2nc(n1)NS(=O)(=O)c1cccc(c1)C(=O)N(CC1CC3(C1)CC(NC(=O)OC(C)C)C3)[C@H](CC(C)(C)C)CO2 (some centres unmarked) [Compound 1003]
activation at 10 µM [7]: > 600%

Compound: Cc1cccc(C)c1-c1cc2nc(n1)NS(=O)(=O)c1cccc(c1)C(=O)N(Cc1ncc(OC(C)C)cn1)[C@H](CC(C)C)CO2 [Compound 239]
EC50 (Table 12): 1 to 3 µM
Emax [8]: > 60%

Compound: Cc1cccc(C)c1-c1cc2nc(n1)NS(=O)(=O)c1cccc(c1)C(=O)N(Cc1cccc(N(C)C3CC4(CCC4)C3)n1)[C@H](CC(C)(C)C)CO2 [Compound 439]
EC50 (Table 12): < 1 µM
Emax [8]: > 60%

Compound: CCOc1cnc(CN2C(=O)c3cccc(c3)S(=O)(=O)Nc3nc(cc(-c4c(C)cccc4C)n3)OC[C@H]2CC2CC2)nc1 [Compound 1482]
EC50 (HBE assay): < 1 µM
Emax [9]: > 60%

Compound: Cc1cccc(C)c1-c1cc2nc(n1)NS(=O)(=O)c1cccc(c1)C(=O)N(Cc1cccc(-c3ncccn3)n1)[C@H](CC(C)(C)C)CO2 [Compound 590]
EC50 (Table 12): < 1 µM
Emax [8]: > 60%

Compound: Cc1cccc(C)c1-c1cc2nc(n1)NS(=O)(=O)c1cccc(c1)C(=O)N(Cc1ccc(N3CCOCC3)cc1)[C@H](CC(C)(C)C)CO2 [Compound 498]
EC50 (Table 10): < 1 µM
Emax [4]: > 60%

Compound: Cc1cccc(C)c1-c1cc2nc(n1)NS(=O)(=O)c1cccc(c1)C(=O)N(Cc1cncc(N(C)C3CCC34CCC4)n1)[C@H](CC(C)(C)C)CO2 (some centres unmarked) [Compound 437]
EC50 (Table 12): < 1 µM
Emax [8]: > 60%

Compound: COC1(C)CN(c2cnc(CN3C(=O)c4cccc(c4)S(=O)(=O)Nc4nc(cc(-c5c(C)cccc5C)n4)OC[C@H]3CC(C)(C)C)nc2)C1 [Compound 585]
EC50 (Table 12): < 1 µM
Emax [8]: > 60%

Compound: Cc1cccc(C)c1-c1cc2nc(n1)NS(=O)(=O)c1cccc(c1)C(=O)N(Cc1ncc(N3CCOC(C)(C)C3)cn1)[C@H](CC(C)(C)C)CO2 [Compound 1156]
EC50 (Table 13): < 1 µM
Emax [10]: > 60%

Compound: Cc1cccc(C)c1-c1cc2nc(n1)NS(=O)(=O)c1cccc(c1)C(=O)N(Cc1ccc(C3=CCCC3)cn1)[C@H](CC(C)(C)C)CO2 [Compound 810]
EC50 (Table 11): < 1 µM
Emax [5]: > 60%

Compound: Cc1cccc(C)c1-c1cc2nc(n1)NS(=O)(=O)c1cccc(c1)C(=O)N(C[C@H]1CC[C@@H](O)CC1)[C@H](CC(C)(C)C)CO2 (single isomer, unassigned) [Compound 151]
EC50 (Table 10): < 1 µM
Emax [4]: > 60%

Compound: Cc1cccc(C)c1-c1cc2nc(n1)NS(=O)(=O)c1cccc(c1)C(=O)N(Cc1cnc(N3CCC(C)(C)C3)nc1)[C@H](CC(C)(C)C)CO2 [Compound 272]
EC50 (Table 12): < 1 µM
Emax [8]: > 60%

Compound: Cc1cccc(C)c1-c1cc2nc(n1)NS(=O)(=O)c1cccc(c1)C(=O)N(Cc1nccc(N3CCC(C)(C)CC3)n1)[C@H](CC(C)(C)C)CO2 [Compound 620]
HBE Max activity (%) (Table 11): + (+ is <30%)
activation at 10 µM [2]: > 60%

Compound: Cc1cccc(C)c1-c1cc2nc(n1)NS(=O)(=O)c1cccc(c1)C(=O)N(Cc1cccc(N3CCC[C@@H]3C#N)n1)[C@H](CC(C)(C)C)CO2 [Compound 533]
activation at 10 µM [7]: > 600%

Compound: Cc1cccc(C)c1-c1cc2nc(n1)NS(=O)(=O)c1cccc(c1)C(=O)N(Cc1ncc(N3CCC(C)(F)CC3)cn1)[C@H](CC(C)(C)C)CO2 [Compound 1442]
activation at 10 µM [1]: > 60%

Compound: Cc1cccc(C)c1-c1cc2nc(n1)NS(=O)(=O)c1cccc(c1)C(=O)N(Cc1ncc(N3CCC(C)(C)CC3)cn1)[C@H](CC(C)(C)C)CO2 [Compound 117, (11R)-6-(2,6-dimethylphenyl)-12-[[5-(4,4-dimethyl-1-piperidyl)pyrimidin-2-yl]methyl]-11-(2,2-dimethylpropyl)-2,2-dioxo-9-oxa-2λ^6-thia-3,5,12,19-tetrazatricyclo[12.3.1.14,8]nonadeca-1(18),4(19),5,7,14,16-hexaen-13-one]
EC50 (Table 11): < 1 µM
Emax [5]: > 60%

Compound: Cc1cccc(C)c1-c1cc2nc(n1)NS(=O)(=O)c1cccc(c1)C(=O)N(CC1CC3(C1)CC(N(C)C)C3)[C@H](CC(C)(C)C)CO2 (some centres unmarked) [Compound 1000]
activation at 10 µM [7]: > 600%

Compound: COC[C@H]1CCCN1c1cncc(CN2C(=O)c3cccc(c3)S(=O)(=O)Nc3nc(cc(-c4c(C)cccc4C)n3)OC[C@H]2CC(C)(C)C)n1 [Compound 274]
EC50 (Table 12): < 1 µM
Emax [8]: > 60%

Compound: Cc1cccc(C)c1-c1cc2nc(n1)NS(=O)(=O)c1cccc(c1)C(=O)N(Cc1cncc(N3CCOCC3)n1)[C@H](CC(C)(C)C)CO2 [Compound 896]
EC50 (Table 11): < 1 µM
Emax [5]: > 60%

Compound: Cc1cccc(C)c1-c1cc2nc(n1)NS(=O)(=O)c1cccc(c1)C(=O)N(Cc1ccccc1-c1c[nH]nc1C(F)(F)F)[C@H](CC(C)(C)C)CO2 [Compound 304]
activation at 10 µM [3]: > 60%

Compound: Cc1cccc(C)c1-c1cc2nc(n1)NS(=O)(=O)c1cccc(c1)C(=O)N(Cc1cncc(N3CCC[C@@H]3C)c1)[C@H](CC(C)(C)C)CO2 [Compound 283]
activation at 10 µM [6]: > 600%

Compound: Cc1cccc(C)c1-c1cc2nc(n1)NS(=O)(=O)c1cccc(c1)C(=O)N(Cc1cccc(N3CCCC3C(C)(C)O)n1)[C@H](CC(C)(C)C)CO2 (some centres unmarked) [Compound 1123]
activation at 10 µM [7]: > 600%

Compound: Cc1cccc(C)c1-c1cc2nc(n1)NS(=O)(=O)c1cccc(c1)C(=O)N(Cc1cccc(N3CCC[C@@H]3CO)n1)[C@H](CC(C)(C)C)CO2 [Compound 280]
EC50 (Table 12): < 1 µM
Emax [8]: > 60%

The remaining lines, values ahead:

activation at 10 µM [3]: > 60%
Emax [4]: > 60%
Compound: Cc1cccc(C)c1-c1cc2nc(n1)NS(=O)(=O)c1cccc(c1)C(=O)N(Cc1cnn(C(C)C)c1)[C@H](CC(C)(C)C)CO2 [Compound 823]

activation at 10 µM [6]: > 600%
Compound: Cc1cccc(C)c1-c1cc2nc(n1)NS(=O)(=O)c1cccc(c1)C(=O)N(CC(=O)N(C)CCN(C)C)[C@H](CC(C)(C)C)CO2 [Compound 224]

EC50 (Table 10): < 1 µM
Emax [4]: > 60%
Compound: Cc1cccc(C)c1-c1cc2nc(n1)NS(=O)(=O)c1cccc(c1)C(=O)N(Cc1ccc(OCC(N)=O)cc1)[C@H](CC(C)(C)C)CO2 [Compound 780]

EC50 (HBE assay): < 1 µM
Emax [9]: > 60%
Compound: COCCOc1cnc(CN2C(=O)c3cccc(c3)S(=O)(=O)Nc3nc(cc(-c4c(C)cccc4C)n3)OC[C@H]2CC(C)(C)C)nc1 [Compound 1380]

EC50 (Table 12): < 1 µM
Emax [8]: > 60%
Compound: Cc1cccc(C)c1-c1cc2nc(n1)NS(=O)(=O)c1cccc(c1)C(=O)N(Cc1ccnc(CC(C)C)n1)[C@H](CC(C)(C)C)CO2 [Compound 594]

EC50 (Table 12): < 1 µM
Emax [8]: > 60%
Compound: Cc1cccc(C)c1-c1cc2nc(n1)NS(=O)(=O)c1cccc(c1)C(=O)N(Cc1cnc(OC(C)C)nc1)[C@H](CC(C)(C)C)CO2 [Compound 270]

EC50 (HBE assay): < 1 µM
Emax [9]: > 60%
Compound: Cc1cccc(C)c1-c1cc2nc(n1)NS(=O)(=O)c1cccc(c1)C(=O)N(Cc1ncc(OC(C)C)cc1C#N)[C@H](CC(C)(C)C)CO2 [Compound 1351]

EC50 (Table 10): 1 to 3 µM
Emax [4]: > 60%
Compound: Cc1cccc(C)c1-c1cc2nc(n1)NS(=O)(=O)c1cccc(c1)C(=O)N(Cc1ccc(OCC(C)(C)C)cn1)[C@H](CC(C)(C)C)CO2 [Compound 768]

EC50 (Table 11): < 1 µM
Emax [5]: > 60%
Compound: Cc1cccc(C)c1-c1cc2nc(n1)NS(=O)(=O)c1cccc(c1)C(=O)N(Cc1cc(C(C)(C)O)ccn1)[C@H](CC(C)(C)C)CO2 [Compound 812]

EC50 (Table 13): < 1 µM
Emax [10]: > 60%
Compound: Cc1cccc(C)c1-c1cc2nc(n1)NS(=O)(=O)c1cccc(c1)C(=O)N(Cc1cccc(OC(C)C)n1)[C@H](CC(C)(C)C)CO2 [Compound 370]

EC50 (HBE assay): < 1 µM
Emax [9]: > 60%
Compound: CC[C@@H](C)Oc1cnc(CN2C(=O)c3cccc(c3)S(=O)(=O)Nc3nc(cc(-c4c(C)cccc4C)n3)OC[C@H]2CC(C)(C)C)nc1 [Compound 1375]

EC50 (Table 11): < 1 µM
Emax [5]: > 60%
Compound: CCN(c1ccnc(CN2C(=O)c3cccc(c3)S(=O)(=O)Nc3nc(cc(-c4c(C)cccc4C)n3)OC[C@H]2CC(C)(C)C)n1)C(C)C [Compound 602]

EC50 (Table 12): < 1 µM
Emax [8]: > 60%
Compound: Cc1cccc(C)c1-c1cc2nc(n1)NS(=O)(=O)c1cccc(c1)C(=O)N(Cc1nc(C(C)C)cs1)[C@H](CC(C)(C)C)CO2 [Compound 704]

EC50 (Table 12): < 1 µM
Emax [8]: > 60%
Compound: COC[C@@H]1CCCN1c1cccc(CN2C(=O)c3cccc(c3)S(=O)(=O)Nc3nc(cc(-c4c(C)cccc4C)n3)OC[C@H]2CC(C)(C)C)n1 [Compound 275]

EC50 (HBE assay): < 1 µM
Emax [9]: > 60%
Compound: COCCN(c1ccc(C)c(CN2C(=O)c3cccc(c3)S(=O)(=O)Nc3nc(cc(-c4c(C)cccc4C)n3)OC[C@H]2CC(C)(C)C)n1)C(C)C [Compound 1343]
